Test results taken from publication PMC7026418, “The kinase polypharmacology landscape of clinical PARP inhibitors” (Scientific Reports, 2020).
Read-outs that look alike come from different tables or passages of the source.

Experiments:
Assay in all cases: biochemical
Set-up in all cases: DiscoveRx KINOMEscan active site-directed competition binding; percent of control kinase bound to immobilised ligand
KIT(V559D) = KIT(V559D) (Homo sapiens, UniProt P10721, V559D)
[1] = molecular target: T1, ABL1(Q252H)-phosphorylated (Homo sapiens, UniProt P00519, Q252H)
T1 construct: phosphorylated

VEGFR2 = molecular target: T2, VEGFR2 (Homo sapiens, UniProt P35968)
T2 construct: gene KDR
T2 sequence (P35968 whole entry): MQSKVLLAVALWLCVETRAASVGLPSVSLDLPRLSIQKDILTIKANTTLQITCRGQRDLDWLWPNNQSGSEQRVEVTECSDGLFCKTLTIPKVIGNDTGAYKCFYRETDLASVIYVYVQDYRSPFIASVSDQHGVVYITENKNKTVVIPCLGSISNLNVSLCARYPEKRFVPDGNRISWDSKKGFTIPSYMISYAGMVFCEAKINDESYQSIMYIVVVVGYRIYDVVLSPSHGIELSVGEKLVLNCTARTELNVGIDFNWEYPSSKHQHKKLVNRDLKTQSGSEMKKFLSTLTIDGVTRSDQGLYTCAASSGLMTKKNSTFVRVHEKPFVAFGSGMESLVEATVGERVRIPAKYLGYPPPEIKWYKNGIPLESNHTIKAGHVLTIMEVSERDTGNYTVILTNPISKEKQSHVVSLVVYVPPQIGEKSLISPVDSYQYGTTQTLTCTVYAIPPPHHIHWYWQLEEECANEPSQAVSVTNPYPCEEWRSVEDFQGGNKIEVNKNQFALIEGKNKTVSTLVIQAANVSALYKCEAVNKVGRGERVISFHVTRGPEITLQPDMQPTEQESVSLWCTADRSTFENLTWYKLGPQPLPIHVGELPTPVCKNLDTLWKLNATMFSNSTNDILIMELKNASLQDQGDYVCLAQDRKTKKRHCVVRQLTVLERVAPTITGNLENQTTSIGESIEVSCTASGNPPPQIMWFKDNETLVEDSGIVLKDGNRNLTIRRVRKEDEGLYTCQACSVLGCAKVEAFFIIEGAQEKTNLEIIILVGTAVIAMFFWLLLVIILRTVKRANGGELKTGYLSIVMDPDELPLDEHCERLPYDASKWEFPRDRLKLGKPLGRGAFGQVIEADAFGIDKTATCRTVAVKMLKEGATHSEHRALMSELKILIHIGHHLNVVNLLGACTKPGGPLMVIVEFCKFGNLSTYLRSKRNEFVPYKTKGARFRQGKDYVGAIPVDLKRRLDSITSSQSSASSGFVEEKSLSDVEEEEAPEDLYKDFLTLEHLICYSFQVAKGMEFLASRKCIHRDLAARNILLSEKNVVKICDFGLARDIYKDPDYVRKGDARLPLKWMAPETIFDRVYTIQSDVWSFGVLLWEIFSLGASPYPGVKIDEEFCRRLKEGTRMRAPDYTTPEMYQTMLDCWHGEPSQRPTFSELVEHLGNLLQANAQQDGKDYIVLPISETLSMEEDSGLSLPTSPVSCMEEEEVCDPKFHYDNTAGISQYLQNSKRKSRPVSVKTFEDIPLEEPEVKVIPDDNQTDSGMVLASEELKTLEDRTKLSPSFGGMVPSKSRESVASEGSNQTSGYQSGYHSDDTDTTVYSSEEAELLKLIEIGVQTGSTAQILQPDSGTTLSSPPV

PFTAIRE2 = molecular target: T3, PFTAIRE2 (Homo sapiens, UniProt Q96Q40)
T3 construct: gene CDK15
T3 sequence (Q96Q40 whole entry): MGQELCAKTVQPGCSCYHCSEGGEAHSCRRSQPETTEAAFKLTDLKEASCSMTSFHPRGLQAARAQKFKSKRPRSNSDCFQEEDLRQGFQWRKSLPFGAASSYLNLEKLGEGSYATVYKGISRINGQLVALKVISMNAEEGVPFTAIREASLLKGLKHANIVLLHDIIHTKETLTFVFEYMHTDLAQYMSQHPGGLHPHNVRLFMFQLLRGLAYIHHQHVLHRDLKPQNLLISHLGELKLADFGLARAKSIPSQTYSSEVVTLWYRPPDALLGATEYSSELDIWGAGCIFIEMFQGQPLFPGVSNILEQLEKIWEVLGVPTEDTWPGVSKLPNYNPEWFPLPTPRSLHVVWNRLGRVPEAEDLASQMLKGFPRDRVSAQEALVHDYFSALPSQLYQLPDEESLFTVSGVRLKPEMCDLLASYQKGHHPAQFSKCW

INSRR = INSRR (Homo sapiens, UniProt P14616)
Sequence of INSRR (P14616 whole entry): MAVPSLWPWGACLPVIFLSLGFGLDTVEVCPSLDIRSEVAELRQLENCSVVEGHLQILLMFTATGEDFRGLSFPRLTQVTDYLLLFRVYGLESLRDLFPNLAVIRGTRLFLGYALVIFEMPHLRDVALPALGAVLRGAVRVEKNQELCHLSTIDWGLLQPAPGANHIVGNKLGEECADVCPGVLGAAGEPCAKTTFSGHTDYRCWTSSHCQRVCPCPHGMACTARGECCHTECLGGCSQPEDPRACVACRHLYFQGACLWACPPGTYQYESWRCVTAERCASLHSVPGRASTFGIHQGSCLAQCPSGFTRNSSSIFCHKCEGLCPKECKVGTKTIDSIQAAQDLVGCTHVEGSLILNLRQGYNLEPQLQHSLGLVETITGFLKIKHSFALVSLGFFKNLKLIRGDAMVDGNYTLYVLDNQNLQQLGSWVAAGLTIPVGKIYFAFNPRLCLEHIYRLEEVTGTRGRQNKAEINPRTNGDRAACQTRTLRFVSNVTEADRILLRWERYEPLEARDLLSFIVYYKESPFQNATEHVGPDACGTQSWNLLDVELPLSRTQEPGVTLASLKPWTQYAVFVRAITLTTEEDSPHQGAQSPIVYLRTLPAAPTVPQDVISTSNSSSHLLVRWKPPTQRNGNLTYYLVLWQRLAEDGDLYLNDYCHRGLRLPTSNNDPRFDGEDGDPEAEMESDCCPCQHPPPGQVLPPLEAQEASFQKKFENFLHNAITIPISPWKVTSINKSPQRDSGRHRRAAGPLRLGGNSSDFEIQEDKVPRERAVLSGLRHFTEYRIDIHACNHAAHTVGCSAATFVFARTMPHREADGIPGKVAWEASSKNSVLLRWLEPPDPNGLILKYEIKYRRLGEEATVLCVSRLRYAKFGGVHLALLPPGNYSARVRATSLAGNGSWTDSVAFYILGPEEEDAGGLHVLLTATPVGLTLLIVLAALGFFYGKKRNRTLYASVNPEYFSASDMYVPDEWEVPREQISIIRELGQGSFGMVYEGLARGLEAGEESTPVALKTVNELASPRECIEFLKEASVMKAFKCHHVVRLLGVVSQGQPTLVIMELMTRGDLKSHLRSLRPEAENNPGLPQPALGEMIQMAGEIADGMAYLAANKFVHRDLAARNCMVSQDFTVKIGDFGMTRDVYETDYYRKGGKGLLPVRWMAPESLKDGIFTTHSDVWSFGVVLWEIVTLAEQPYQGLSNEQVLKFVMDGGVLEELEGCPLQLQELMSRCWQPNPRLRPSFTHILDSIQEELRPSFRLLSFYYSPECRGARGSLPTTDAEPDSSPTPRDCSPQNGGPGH

FGFR4 = FGFR4 (Homo sapiens, UniProt P22455)
Sequence of FGFR4 (P22455 whole entry): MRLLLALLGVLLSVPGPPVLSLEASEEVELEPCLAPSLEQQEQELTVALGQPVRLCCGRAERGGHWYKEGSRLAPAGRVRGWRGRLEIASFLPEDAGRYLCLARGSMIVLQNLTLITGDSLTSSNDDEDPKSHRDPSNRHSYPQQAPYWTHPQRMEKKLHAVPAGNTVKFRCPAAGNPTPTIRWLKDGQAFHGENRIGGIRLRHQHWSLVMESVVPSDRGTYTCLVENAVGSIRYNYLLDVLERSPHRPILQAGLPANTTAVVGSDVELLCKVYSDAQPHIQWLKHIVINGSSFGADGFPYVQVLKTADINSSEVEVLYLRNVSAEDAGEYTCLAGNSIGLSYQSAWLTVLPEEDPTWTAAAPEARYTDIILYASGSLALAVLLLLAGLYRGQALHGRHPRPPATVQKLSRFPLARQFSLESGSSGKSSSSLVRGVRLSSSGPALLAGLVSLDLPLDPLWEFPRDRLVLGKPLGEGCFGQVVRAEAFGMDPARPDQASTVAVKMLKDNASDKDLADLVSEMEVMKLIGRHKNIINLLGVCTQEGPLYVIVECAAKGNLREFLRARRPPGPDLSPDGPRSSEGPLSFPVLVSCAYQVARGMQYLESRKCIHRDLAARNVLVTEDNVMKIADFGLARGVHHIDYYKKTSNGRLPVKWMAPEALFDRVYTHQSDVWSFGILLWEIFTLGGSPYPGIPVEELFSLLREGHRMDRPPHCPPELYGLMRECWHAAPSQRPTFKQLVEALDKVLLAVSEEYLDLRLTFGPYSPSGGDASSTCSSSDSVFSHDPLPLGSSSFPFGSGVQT

ULK1 = molecular target: T4, ULK1 (Homo sapiens, UniProt O75385)
T4 sequence (O75385 1-1050): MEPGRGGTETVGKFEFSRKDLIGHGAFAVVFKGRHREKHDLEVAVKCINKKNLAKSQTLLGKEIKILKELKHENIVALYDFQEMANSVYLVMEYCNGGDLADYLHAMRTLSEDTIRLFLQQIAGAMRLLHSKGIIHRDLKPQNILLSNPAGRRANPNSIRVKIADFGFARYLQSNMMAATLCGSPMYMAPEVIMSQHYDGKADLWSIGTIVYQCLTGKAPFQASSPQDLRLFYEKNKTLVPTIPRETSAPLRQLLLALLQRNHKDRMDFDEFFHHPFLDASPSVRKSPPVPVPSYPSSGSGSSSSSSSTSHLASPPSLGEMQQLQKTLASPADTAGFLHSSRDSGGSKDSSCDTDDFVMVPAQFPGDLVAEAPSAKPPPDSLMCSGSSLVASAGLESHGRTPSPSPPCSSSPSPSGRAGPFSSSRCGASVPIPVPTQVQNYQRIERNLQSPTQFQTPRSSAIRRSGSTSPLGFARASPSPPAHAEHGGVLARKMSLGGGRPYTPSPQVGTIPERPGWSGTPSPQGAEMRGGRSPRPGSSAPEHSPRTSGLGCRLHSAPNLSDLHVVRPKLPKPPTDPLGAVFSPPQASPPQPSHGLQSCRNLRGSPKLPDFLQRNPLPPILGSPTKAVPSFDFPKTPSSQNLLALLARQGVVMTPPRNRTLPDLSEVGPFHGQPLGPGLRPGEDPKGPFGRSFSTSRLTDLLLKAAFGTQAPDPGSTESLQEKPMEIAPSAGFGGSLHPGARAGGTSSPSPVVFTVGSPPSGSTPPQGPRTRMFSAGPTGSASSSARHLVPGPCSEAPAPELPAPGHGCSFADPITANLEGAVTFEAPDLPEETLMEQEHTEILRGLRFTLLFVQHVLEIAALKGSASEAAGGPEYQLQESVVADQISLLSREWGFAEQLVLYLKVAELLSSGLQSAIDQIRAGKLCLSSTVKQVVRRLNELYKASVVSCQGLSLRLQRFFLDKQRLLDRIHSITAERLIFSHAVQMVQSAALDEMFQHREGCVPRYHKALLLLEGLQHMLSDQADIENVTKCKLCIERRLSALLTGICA

FLT3(R834Q) = molecular target: T5, FLT3(R834Q) (Homo sapiens, UniProt P36888, R834Q)
T5 sequence (P36888 1-993 R834Q): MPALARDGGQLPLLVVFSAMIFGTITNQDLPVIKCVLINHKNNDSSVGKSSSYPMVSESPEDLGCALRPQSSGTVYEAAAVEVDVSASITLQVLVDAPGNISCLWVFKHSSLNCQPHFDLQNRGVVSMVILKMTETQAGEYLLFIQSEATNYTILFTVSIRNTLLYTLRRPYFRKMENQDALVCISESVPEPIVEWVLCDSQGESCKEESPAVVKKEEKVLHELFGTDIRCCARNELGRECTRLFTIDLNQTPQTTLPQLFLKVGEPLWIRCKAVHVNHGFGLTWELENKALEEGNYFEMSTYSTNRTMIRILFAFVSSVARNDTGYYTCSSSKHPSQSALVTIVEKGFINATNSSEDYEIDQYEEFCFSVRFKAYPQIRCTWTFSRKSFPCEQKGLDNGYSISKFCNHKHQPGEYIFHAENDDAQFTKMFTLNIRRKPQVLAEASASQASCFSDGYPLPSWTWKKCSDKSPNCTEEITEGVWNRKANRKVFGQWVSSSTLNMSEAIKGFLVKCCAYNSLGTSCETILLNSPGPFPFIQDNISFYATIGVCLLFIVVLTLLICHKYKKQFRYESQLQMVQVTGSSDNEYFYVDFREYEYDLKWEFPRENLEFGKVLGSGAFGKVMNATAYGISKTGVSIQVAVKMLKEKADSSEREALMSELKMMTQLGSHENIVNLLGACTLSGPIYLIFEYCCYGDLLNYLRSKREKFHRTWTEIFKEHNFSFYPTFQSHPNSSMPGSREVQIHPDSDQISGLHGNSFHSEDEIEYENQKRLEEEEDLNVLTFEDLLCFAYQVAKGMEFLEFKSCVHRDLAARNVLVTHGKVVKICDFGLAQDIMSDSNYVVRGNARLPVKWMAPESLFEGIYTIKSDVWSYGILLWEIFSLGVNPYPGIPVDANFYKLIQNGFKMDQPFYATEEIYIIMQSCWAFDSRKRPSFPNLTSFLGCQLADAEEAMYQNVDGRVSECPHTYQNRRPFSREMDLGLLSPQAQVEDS

[2] = read-out: Niraparib (MK-4827) / %Ctrl @ 10000nM
[3] = read-out: Olaparib / %Ctrl @ 10000nM
[4] = read-out: Rucaparib / %Ctrl @ 10000nM, binding competition, % of control
[5] = read-out: Talazoparib (BMN 673) / %Ctrl @ 10000nM

Sequence of KIT(V559D) (P10721 whole entry V559D): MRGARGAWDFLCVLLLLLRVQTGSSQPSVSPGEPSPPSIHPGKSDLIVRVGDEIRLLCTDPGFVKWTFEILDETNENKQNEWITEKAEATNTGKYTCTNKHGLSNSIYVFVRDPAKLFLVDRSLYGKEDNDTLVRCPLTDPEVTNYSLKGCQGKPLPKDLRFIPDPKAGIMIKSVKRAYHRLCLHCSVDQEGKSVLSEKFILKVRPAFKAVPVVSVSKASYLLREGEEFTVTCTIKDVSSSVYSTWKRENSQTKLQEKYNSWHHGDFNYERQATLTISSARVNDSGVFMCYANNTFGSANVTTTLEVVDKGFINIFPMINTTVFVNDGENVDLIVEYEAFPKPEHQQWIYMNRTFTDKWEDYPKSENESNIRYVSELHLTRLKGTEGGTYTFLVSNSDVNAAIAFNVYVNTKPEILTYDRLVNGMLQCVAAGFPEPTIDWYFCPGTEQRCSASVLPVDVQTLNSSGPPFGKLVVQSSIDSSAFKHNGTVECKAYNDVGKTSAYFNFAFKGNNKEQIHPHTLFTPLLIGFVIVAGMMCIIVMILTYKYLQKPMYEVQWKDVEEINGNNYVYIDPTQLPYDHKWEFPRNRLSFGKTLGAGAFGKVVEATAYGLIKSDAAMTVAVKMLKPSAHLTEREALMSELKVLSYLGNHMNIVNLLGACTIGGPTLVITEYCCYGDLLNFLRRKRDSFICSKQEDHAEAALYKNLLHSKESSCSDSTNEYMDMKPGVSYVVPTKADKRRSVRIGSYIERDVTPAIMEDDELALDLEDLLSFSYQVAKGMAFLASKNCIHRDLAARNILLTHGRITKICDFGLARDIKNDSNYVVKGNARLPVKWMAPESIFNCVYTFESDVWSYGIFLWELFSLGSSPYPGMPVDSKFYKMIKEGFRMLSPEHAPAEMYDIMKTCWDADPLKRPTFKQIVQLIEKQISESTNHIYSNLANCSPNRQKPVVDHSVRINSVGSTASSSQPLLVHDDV

Question: `NC(=O)c1cccc2cn(-c3ccc([C@@H]4CCCNC4)cc3)nc12` [Niraparib] was tested. Which percent of control binding at 10 µM (KIT(V559D); [2]) did it give?
Answer: The percent of control binding at 10 µM was 90%.

Question: What about the percent of control binding at 10 µM [1, 2] of the same compound?
Answer: The percent of control binding at 10 µM was 51%.

Question: And the percent of control binding at 10 µM (VEGFR2; [2])?
Answer: Its percent of control binding at 10 µM is 77%.

Question: What about the percent of control binding at 10 µM (PFTAIRE2; [2]) of the same compound?
Answer: The percent of control binding at 10 µM was 96%.

Question: What about the percent of control binding at 10 µM (INSRR; [2]) of the same compound?
Answer: Its percent of control binding at 10 µM is 92%.

Question: And the percent of control binding at 10 µM (FGFR4; [2])?
Answer: The percent of control binding at 10 µM was 94%.

Question: What about the percent of control binding at 10 µM (ULK1; [2]) of the same compound?
Answer: Its percent of control binding at 10 µM is 100%.

Question: And the percent of control binding at 10 µM (FLT3(R834Q); [2])?
Answer: Its percent of control binding at 10 µM is 100%.

Question: How did the percent of control binding at 10 µM (KIT(V559D); [3]) turn out when `O=C(c1cc(Cc2n[nH]c(=O)c3ccccc23)ccc1F)N1CCN(C(=O)C2CC2)CC1` [Olaparib] was run?
Answer: The percent of control binding at 10 µM was 100%.

Question: What about the percent of control binding at 10 µM [1, 3] of the same compound?
Answer: The percent of control binding at 10 µM was 71%.

Question: And the percent of control binding at 10 µM (VEGFR2; [3])?
Answer: Its percent of control binding at 10 µM is 95%.

Question: And the percent of control binding at 10 µM (PFTAIRE2; [3])?
Answer: The percent of control binding at 10 µM was 100%.

Question: What about the percent of control binding at 10 µM (INSRR; [3]) of the same compound?
Answer: Its percent of control binding at 10 µM is 100%.

Question: And the percent of control binding at 10 µM (FGFR4; [3])?
Answer: Its percent of control binding at 10 µM is 82%.

Question: And the percent of control binding at 10 µM (ULK1; [3])?
Answer: The percent of control binding at 10 µM was 83%.

Question: What about the percent of control binding at 10 µM (FLT3(R834Q); [3]) of the same compound?
Answer: Its percent of control binding at 10 µM is 79%.

Question: With `CNCc1ccc(-c2[nH]c3cc(F)cc4c3c2CCNC4=O)cc1` [Rucaparib] as the compound, how does the percent of control binding at 10 µM (KIT(V559D); [4]) read?
Answer: Its percent of control binding at 10 µM is 92%.

Question: What about the percent of control binding at 10 µM [1, 4] of the same compound?
Answer: Its percent of control binding at 10 µM is 72%.

Question: And the percent of control binding at 10 µM (VEGFR2; [4])?
Answer: Its percent of control binding at 10 µM is 98%.

Question: What about the percent of control binding at 10 µM (PFTAIRE2; [4]) of the same compound?
Answer: Its percent of control binding at 10 µM is 100%.

Question: What about the percent of control binding at 10 µM (INSRR; [4]) of the same compound?
Answer: Its percent of control binding at 10 µM is 95%.

Question: And the percent of control binding at 10 µM (FGFR4; [4])?
Answer: The percent of control binding at 10 µM was 91%.

Question: What about the percent of control binding at 10 µM (ULK1; [4]) of the same compound?
Answer: The percent of control binding at 10 µM was 64%.

Question: What about the “Rucaparib / %Ctrl @ 10000nM” value (FLT3(R834Q); binding competition, % of control) of the same compound?
Answer: The value was 81%.

Question: What does the source list for `Cn1ncnc1[C@H]1c2n[nH]c(=O)c3cc(F)cc(c23)N[C@@H]1c1ccc(F)cc1` [Talazoparib]?
Answer: percent of control binding at 10 µM (KIT(V559D); [5]): 100%; percent of control binding at 10 µM [1, 5]: 100%; percent of control binding at 10 µM (VEGFR2; [5]): 100%; percent of control binding at 10 µM (PFTAIRE2; [5]): 100%; percent of control binding at 10 µM (INSRR; [5]): 100%; percent of control binding at 10 µM (FGFR4; [5]): 100%; percent of control binding at 10 µM (ULK1; [5]): 94%; percent of control binding at 10 µM (FLT3(R834Q); [5]): 100%
